# Measured values taken from ChEMBL document CHEMBL1149208, “Synthesis of 1alpha,25-dihydroxyvitamin D3-26,23-lactams (DLAMs), a novel series of 1 alpha,25-dihydroxyvitamin D3 antagonist” (Bioorg Med Chem Lett, 2004).
# pIC50: −log10 of the molar value.
# Legend:
# Vitamin D3 receptor = molecular target: T1, Vitamin D3 receptor (Gallus gallus, UniProt O42392); experiment: In vitro relative binding affinity for chick intestinal vitamin D3 receptor compared to [3H]1
# T1 sequence (O42392 whole entry): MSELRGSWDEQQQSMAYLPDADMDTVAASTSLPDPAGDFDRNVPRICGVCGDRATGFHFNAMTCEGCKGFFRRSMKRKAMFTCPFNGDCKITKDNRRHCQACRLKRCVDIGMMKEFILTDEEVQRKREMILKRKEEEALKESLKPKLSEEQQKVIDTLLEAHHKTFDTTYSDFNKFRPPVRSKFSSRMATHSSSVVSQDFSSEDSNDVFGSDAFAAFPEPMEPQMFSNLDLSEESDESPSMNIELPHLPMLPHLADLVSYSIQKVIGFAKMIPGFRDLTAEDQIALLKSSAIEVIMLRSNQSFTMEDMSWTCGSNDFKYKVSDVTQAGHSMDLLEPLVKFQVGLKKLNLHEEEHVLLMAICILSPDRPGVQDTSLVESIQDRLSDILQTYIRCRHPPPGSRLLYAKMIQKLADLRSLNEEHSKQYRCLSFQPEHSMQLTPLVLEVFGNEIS
# HL-60 = experiment: Inhibitory activity on HL-60 cell differentiation induced by 10e-8 M of compound 1 (1,25-D3); set-up: scale not given: the % may be the effect or the level left
SMILES,pIC50 (Vitamin D3 receptor),Activity (HL-60)
C=C1/C(=C/C=C2/CCC[C@]3(C)[C@@H]([C@H](C)C[C@@H]4C[C@](C)(O)C(=O)N4C)CC[C@@H]23)C[C@@H](O)C[C@@H]1O (stereo in doubt; form 2),< 7.00,
C=C1/C(=C/C=C2/CCC[C@]3(C)[C@@H]([C@H](C)C[C@@H]4C[C@@](C)(O)C(=O)N4C)CC[C@@H]23)C[C@@H](O)C[C@@H]1O,7.30,
C=C1/C(=C/C=C2/CCC[C@@]3(C)C2CCC3[C@H](C)C[C@H]2C[C@](C)(O)C(=O)N2Cc2ccccc2)C[C@@H](O)C[C@@H]1O (stereo partly drawn),8.72,47%
C=C1/C(=C/C=C2/CCC[C@]3(C)[C@@H]([C@H](C)C[C@@H]4C[C@](C)(O)C(=O)N4C)CC[C@@H]23)C[C@@H](O)C[C@@H]1O (stereo in doubt; form 1),< 7.00,
C=C1/C(=C/C=C2/CCC[C@@]3(C)C2CCC3[C@H](C)C[C@@H]2C[C@@](C)(O)C(=O)N2Cc2ccccc2)C[C@@H](O)C[C@@H]1O (stereo partly drawn),7.52,
C=C1/C(=C/C=C2/CCC[C@@]3(C)C2CCC3[C@H](C)C[C@H]2C[C@](C)(O)C(=O)N2C)C[C@@H](O)C[C@@H]1O (stereo partly drawn),7.99,12%
